Laboratory results: patent US20230391772A1, “METHODS AND COMPOSITIONS FOR TARGETED PROTEIN DEGRADATION” (Ranok Therapeutics (Hangzhou) Co. Ltd., priority 2020, published 2023)
pEC50, pIC50: −log10 of the molar value.

Experiments:
KRAS(G12C) [1] = molecular target: T1, KRAS(G12C) (Homo sapiens, UniProt P01116, G12C); assay: KRAS(G12C)/SOS1 homogeneous time-resolved fluorescence (HTRF) assay; set-up: purchased Cisbio 63ADK000CB16PEG; conditions: absence of GTP, 4° C. for 3 hr, read-out: KRAS (G12C) binding
Summary of the method: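 HTRF kit measuring compound-induced block of KRAS(G12C)-SOS1 interaction without GTP. Compounds tested as 3-fold serial dilutions down to 1.02 nM, incubated with reaction components 3 h at 4 °C in sealed plates before fluorescence read.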

[2] = system: MIA PaCa-2 human pancreatic carcinoma; assay: MIA PaCa-2 CCK-8 proliferation assay; type: cell-based; conditions: MIA PaCa-2 cells
Summary of the method: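 Three KRAS(G12C) lines are used, MIA PaCa-2 at two mutant copies and the NSCLC lines NCI-H358 and NCI-H23 at one. Each compound is titrated 3-fold from 20 μM to 1.02 nM, and proliferation is scored by CCK-8.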

KRAS(G12C) [3] = molecular target: T1, KRAS(G12C); assay: KRAS(G12C) Western blot protein degradation assay in LU65A cells; type: cell-based; set-up: LU65A human lung cancer cell line, which expresses KRAS(G12C); host or cells: LU65A; conditions: 6 hr
Protocol: The following cancer cell lines were employed: BT-474 human breast carcinoma (ATCC, #HTB-20); MIA PaCa-2 human pancreatic carcinoma [2 copies KRAS(G12C)](ATCC, #CRL-1420); NCI-H23 human non-small cell lung cancer [1 copy KRAS(G12C)](ATCC, #CRL-5800); NCI-H358 human non-small cell lung cancer [1 copy KRAS(G12C)](ATCC, #CRL-5807); LU65A human lung carcinoma (Pharmaron, Beijing, China). Cell lines were cultured essentially according to ATCC and Pharmaron recommendations.
KRAS(G12C) Western Blot Protein Degradation Assay
The MIA PaCa-2 human pancreatic carcinoma cell line and LU65A human lung cancer cell line, which expresses KRAS(G12C), were seeded in 6- or 12-well tissue culture plates, and after 1 hr, test compounds were added at various concentrations and incubated at 37° C./5% CO2 for 48 hr (MIA Paca-2) and 6 hr (LU65A) respectively. Cells were then washed with cold PBS, aspirated and cold RIPA buffer containing a protease/phosphatase inhibitor cocktail was added to lyse cells. After centrifugation, the total protein concentrations of cell lysates were determined using the BCA protein assay. Samples were normalized for equivalent protein concentrations, 5×SDS-PAGE loading buffer added and denatured at 100° C. for 10 min. 20 μl of each sample/well was loaded on a SDS-PAGE gel and electrophoresed for 20 min at 80 V, then 120 V for 1.5 hr. Gels were then electroblotted to nitrocellulose membranes using a wet-transfer method at 250 mA for 2.5 hr. Membranes were incubated with blocking buffer for 1 hr and washed 3 times with TBST for 5 min. Membranes were then incubated with anti-KRAS (Sigma-Aldrich, #SAB1404011) and anti-β-Actin monoclonal antibodies (Cell Signaling Technology, #3700) diluted in blocking buffer at 4° C. overnight per the manufacturer's recommendations. After washing 3 times, blots were incubated with appropriately labeled secondary antibodies for 1 hr at room temperature and washed again. Fluorescence imaging and quantitation was performed using a LI-COR Odyssey. Results was analyzed using GraphPad Prism 7 software. Compound degradation of was determined by the following equation and DC50 values (the concentration at which 50% of the maximal degradation of KRAS occurs) calculated using GraphPad Prism 7 software:
% Inhibition=100−(D−B)/(S−B)*100%. • S: Fluorescence intensity of cells with antibody • D: Fluorescence intensity of compound-treated cells with antibody • B: Fluorescence intensity of cells without antibody

T1 sequence (P01116 1-188 isoform P01116-2 G12C): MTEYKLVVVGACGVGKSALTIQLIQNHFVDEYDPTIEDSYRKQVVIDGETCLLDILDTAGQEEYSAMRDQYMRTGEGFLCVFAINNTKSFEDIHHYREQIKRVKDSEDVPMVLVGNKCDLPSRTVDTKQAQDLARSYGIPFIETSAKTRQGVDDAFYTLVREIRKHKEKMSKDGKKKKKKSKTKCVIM

| pIC50 (KRAS(G12C) [1]) | pEC50 ([2]; Homo sapiens, MIA PaCa-2, 72 h) | DC50 (KRAS(G12C) [3]) | pEC50 ([2]; 72 hr) | SMILES |
| --- | --- | --- | --- | --- |
| > 7.00 | < 6.00 | > 1000 nM |  | C=CC(=O)N1CCN(c2nc(OC[C@@H]3CC[C@H](CN4CCN(C(=O)C5CCN(Cc6ccc(-n7c(O)nnc7-c7cc(C)c(O)cc7O)cc6)CC5)CC4)N3C)nc3c2CCN(c2cccc4ccccc24)C3)C[C@@H]1CC#N [Compound 256, 2-[(2S)-4-(2-{[(2S,5R)-5-({4-[1-({4-[3-(2,4-dihydroxy-5-methylphenyl)-5-hydroxy-1,2,4-triazol-4-yl]phenyl}methyl)piperidine-4-carbonyl]piperazin-1-yl}methyl)-1-methylpyrrolidin-2-yl]methoxy}-7-(naphthalen-1-yl)-5H,6H,8H-pyrido[3,4-d]pyrimidin-4-yl)-1-(prop-2-enoyl)piperazin-2-yl]acetonitrile] |
| > 7.00 | > 7.00 | 100 to 1000 nM |  | C=CC(=O)N1CCN(c2nc(OC[C@@H]3CC[C@H](CN4CCN(C(=O)C5CCN(Cc6ccc(-n7c(C(=O)NCC)nnc7-c7cc(C(C)C)c(O)cc7O)cc6)CC5)CC4)N3C)nc3c2CCN(c2cccc4cccc(Cl)c24)C3)C[C@@H]1CC#N [Compound 240, 4-(4-{[4-(4-{[(2R,5S)-5-({[7-(8-chloronaphthalen-1-yl)-4-[(3S)-3-(cyanomethyl)-4-(prop-2-enoyl)piperazin-1-yl]-5H,6H,8H-pyrido[3,4-d]pyrimidin-2-yl]oxy}methyl)-1-methylpyrrolidin-2-yl]methyl}piperazine-1-carbonyl)piperidin-1-yl]methyl}phenyl)-5-(2,4-dihydroxy-5-isopropylphenyl)-N-ethyl-1,2,4-triazole-3-carboxamide] |
| 6.00 to 7.00 | 6.00 to 7.00 | > 1000 nM |  | C=CC(=O)N1CCN(c2nc(OC[C@@H]3C[C@@H](N(C)C(=O)C4CCN(Cc5ccc(-n6c(C(=O)NCC(F)(F)F)nnc6-c6cc(C(C)C)c(O)cc6O)cc5)CC4)CN3C)nc3c2CCN(c2cccc4cccc(Cl)c24)C3)C[C@@H]1CC#N [Compound 235, N-((3R,5S)-5-(((4-((S)-4-acryloyl-3-(cyanomethyl)piperazin-1-yl)-7-(8-chloronaphthalen-1-yl)-5,6,7,8-tetrahydropyrido[3,4-d]pyrimidin-2-yl)oxy)methyl)-1-methylpyrrolidin-3-yl)-1-(4-(3-(2,4-dihydroxy-5-isopropylphenyl)-5-((2,2,2-trifluoroethyl)carbamoyl)-4H-1,2,4-triazol-4-yl)benzyl)-N-methylpiperidine-4-carboxamide] |
|  | < 6.00 | 100 to 1000 nM |  | C=CC(=O)N1CCN(c2nc(OC[C@@H]3C[C@H](N4CCN(Cc5ccc(-n6c(O)nnc6-c6cc(C)c(O)cc6O)cc5)CC4)CN3C)nc3c2CCN(c2cccc4ccccc24)C3)C[C@@H]1CC#N [Compound 270, 2-[(2S)-4-(2-{[(2S,4S)-4-[4-({4-[3-(2,4-dihydroxy-5-methylphenyl)-5-hydroxy-1,2,4-triazol-4-yl]phenyl}methyl)piperazin-1-yl]-1-methylpyrrolidin-2-yl]methoxy}-7-(naphthalen-1-yl)-5H,6H,8H-pyrido[3,4-d]pyrimidin-4-yl)-1-(prop-2-enoyl)piperazin-2-yl]acetonitrile] |
|  | > 7.00 | > 1000 nM |  | C=CC(=O)N1CCN(c2nc(OCCN3CCN(C(=O)C4CCN(Cc5ccc(-n6c(C(N)=O)nnc6-c6cc(C(C)C)c(O)cc6O)cc5)CC4)C[C@@H]3CN(C)C)nc3c2CCN(c2cccc4cccc(Cl)c24)C3)C[C@@H]1CC#N [Compound 260, 4-(4-((4-((S)-4-(2-((4-((S)-4-acryloyl-3-(cyanomethyl)piperazin-1-yl)-7-(8-chloronaphthalen-1-yl)-5,6,7,8-tetrahydropyrido[3,4-d]pyrimidin-2-yl)oxy)ethyl)-3-((dimethylamino)methyl)piperazine-1-carbonyl)piperidin-1-yl)methyl)phenyl)-5-(2,4-dihydroxy-5-isopropylphenyl)-4H-1,2,4-triazole-3-carboxamide] |

Second part, the molecule before the results:

| SMILES | pIC50 (KRAS(G12C) [1]) | pEC50 ([2]; Homo sapiens, MIA PaCa-2, 72 h) | DC50 (KRAS(G12C) [3]) | pEC50 ([2]; 72 hr) |
| --- | --- | --- | --- | --- |
| C=CC(=O)N1CCN(c2nc(OC[C@@H]3CC[C@H](CN4CCN(Cc5ccc(-n6c(O)nnc6-c6cc(C(C)C)c(O)cc6O)cc5)CC4)N3C)nc3c2CCN(c2cccc4ccccc24)C3)C[C@@H]1CC#N [Compound 272, 2-[(2S)-4-(2-{[(2S,5R)-5-{[4-({4-[3-(2,4-dihydroxy-5-isopropylphenyl)-5-hydroxy-1,2,4-triazol-4-yl]phenyl}methyl)piperazin-1-yl]methyl}-1-methylpyrrolidin-2-yl]methoxy}-7-(naphthalen-1-yl)-5H,6H,8H-pyrido[3,4-d]pyrimidin-4-yl)-1-(prop-2-enoyl)piperazin-2-yl]acetonitrile] |  | > 7.00 | < 100 nM |  |
| C=CC(=O)N1CCN(c2nc(OC[C@@H]3C[C@H](N4CCN(Cc5ccc(-n6c(C(=O)NCC)nnc6-c6cc(C(C)C)c(O)cc6O)cc5)CC4)CN3C)nc3c2CCN(c2cccc4ccccc24)C3)C[C@@H]1CC#N [Compound 271, 4-[4-({4-[(3S,5S)-5-[({4-[(3S)-3-(cyanomethyl)-4-(prop-2-enoyl)piperazin-1-yl]-7-(naphthalen-1-yl)-5H,6H,8H-pyrido[3,4-d]pyrimidin-2-yl}oxy)methyl]-1-methylpyrrolidin-3-yl]piperazin-1-yl}methyl)phenyl]-5-(2,4-dihydroxy-5-isopropylphenyl)-N-ethyl-1,2,4-triazole-3-carboxamide] |  | 6.00 to 7.00 | 100 to 1000 nM |  |
| C=CC(=O)N1CCN(c2nc(OCCN3CCC(C(=O)N4CCN(Cc5ccc(-n6c(C(=O)NCC(F)(F)F)nnc6-c6cc(C)c(O)cc6O)cc5)CC4)CC3)nc3c2CCN(c2cccc4cccc(Cl)c24)C3)C[C@@H]1CC#N [Compound 253, (S)-4-(4-((4-(1-(2-((4-(4-acryloyl-3-(cyanomethyl)piperazin-1-yl)-7-(8-chloronaphthalen-1-yl)-5,6,7,8-tetrahydropyrido[3,4-d]pyrimidin-2-yl)oxy)ethyl)piperidine-4-carbonyl)piperazin-1-yl)methyl)phenyl)-5-(2,4-dihydroxy-5-methylphenyl)-N-(2,2,2-trifluoroethyl)-4H-1,2,4-triazole-3-carboxamide] |  |  | > 1000 nM | 6.00 to 7.00 |
| C=CC(=O)N1CCN(c2nc(OCCN3CCC(C(=O)N4CCN(Cc5ccc(-n6c(C(=O)NCC(F)(F)F)nnc6-c6cc(C)c(O)cc6O)cc5)CC4)CC3)nc3c2CCN(c2cccc4cccc(Cl)c24)C3)C[C@@H]1CC#N [Compound 254, (S)-4-(4-((4-(1-(2-((4-(4-acryloyl-3-(cyanomethyl)piperazin-1-yl)-7-(8-chloronaphthalen-1-yl)-5,6,7,8-tetrahydropyrido[3,4-d]pyrimidin-2-yl)oxy)ethyl)piperidine-4-carbonyl)piperazin-1-yl)methyl)phenyl)-5-(2,4-dihydroxy-5-methylphenyl)-N-(2,2,2-trifluoroethyl)-4H-1,2,4-triazole-3-carboxamide] |  |  | > 1000 nM | < 6.00 |
| C=CC(=O)N1CCN(c2nc(OC[C@@H]3CC[C@H](CN4CCN(Cc5ccc(-n6c(O)nnc6-c6cc(C(C)C)c(O)cc6O)cc5)CC4)N3C)nc3c2CCN(c2cccc4cccc(C)c24)C3)C[C@@H]1CC#N [Compound 273, 2-[(2S)-4-(2-{[(2S,5R)-5-{[4-({4-[3-(2,4-dihydroxy-5-isopropylphenyl)-5-hydroxy-1,2,4-triazol-4-yl]phenyl}methyl)piperazin-1-yl]methyl}-1-methylpyrrolidin-2-yl]methoxy}-7-(8-methylnaphthalen-1-yl)-5H,6H,8H-pyrido[3,4-d]pyrimidin-4-yl)-1-(prop-2-enoyl)piperazin-2-yl]acetonitrile] |  | 6.00 to 7.00 | 100 to 1000 nM |  |
